Results reported in patent publication US6803379B2, “PHARMACOLOGICAL AGENTS AND METHODS OF TREATMENT THAT INACTIVATE PATHOGENIC PROKARYOTIC AND EUKARYOTIC CELLS AND VIRUSES BY ATTACKING HIGHLY CONSERVED DOMAINS IN STRUCTURAL METALLOPROTEIN AND METALLOENZYME TARGETS” (priority 2002, dated 2004).
Counter-ions that a name gives are not always drawn. Like-named read-outs stand apart in the source and are kept apart here.

Key:
[1] = test system: CHO cells; test: Growth of CHO cells (cell counts at 24, 48 and 72 h); details: for time within which growth was strongly inhibited: 1 mM and 3 mM; for inhibition at 1000 µM / inhibition at 3000 µM / inhibition at 10000 µM: Cricetulus griseus, CHO, read-out: growth inhibition
Protocol: Cells were plated at 1.5×10^5 cells/60-mm dish; 24 hours later, the medium was removed, and new media with or without 0.05 to 10 mM final concentrations of 2-Furoic acid were added. Cell counts were determined at 24, 48 and 72 h after the addition of 2-Furoic acid; each point is the average of triplicate measurements from 3 cultures.

[2] = test system: many different cancer cell lines; test: Cytotoxicity in cancer cell lines in vitro; details: uM concentrations
[3] = test system: human breast adenocarcinoma MDA-468 cell; test: Growth and viability of breast adenocarcinoma MDA-468 cells; assay type: cell-based; details: 50 μM
Protocol: These floating cells were not viable. Within 48 h of treatment there was greater than 90% decrease in cell number.

[4] = test system: CHO cells
[5] = target: LTA4 hydrolase (Homo sapiens, UniProt P09960); details: cited from earlier work
Chain of LTA4 hydrolase (P09960 whole entry): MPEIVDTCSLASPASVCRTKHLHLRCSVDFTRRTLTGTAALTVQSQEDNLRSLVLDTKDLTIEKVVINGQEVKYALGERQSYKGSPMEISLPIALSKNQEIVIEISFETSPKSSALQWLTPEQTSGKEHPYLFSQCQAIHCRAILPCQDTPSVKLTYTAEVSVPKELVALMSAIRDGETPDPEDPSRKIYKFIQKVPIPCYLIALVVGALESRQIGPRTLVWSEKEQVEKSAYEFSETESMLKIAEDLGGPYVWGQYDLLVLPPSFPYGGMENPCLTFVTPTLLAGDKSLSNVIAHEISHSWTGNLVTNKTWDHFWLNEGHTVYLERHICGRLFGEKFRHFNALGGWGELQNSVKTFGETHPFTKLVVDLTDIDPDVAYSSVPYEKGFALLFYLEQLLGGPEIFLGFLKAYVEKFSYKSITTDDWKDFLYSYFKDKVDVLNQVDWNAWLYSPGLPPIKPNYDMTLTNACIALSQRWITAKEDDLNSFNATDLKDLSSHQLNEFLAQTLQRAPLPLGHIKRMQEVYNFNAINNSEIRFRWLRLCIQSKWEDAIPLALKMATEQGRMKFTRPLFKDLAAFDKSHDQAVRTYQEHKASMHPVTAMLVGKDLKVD

[6] = LD-50; details: in vivo
[7] = test system: virally infected cells; test: Activity against virally infected cells relative to 2-thiophenecarboxylic acid; assay type: cell-based
[8] = test system: cancer cells in tissue culture; test: Activity against cancer cells in tissue culture relative to 2-thiophenecarboxylic acid
[9] = test system: Human Foreskin (HF) cells infected with HSV-2-strain G; assay type: cell-based

## c1ccsc1 [Thiophene, reference compound]
[1]; CHO cells, analog tested at 0.05 to 10 mM, up to 72 h
  effect on cell growth: no significant effect on cell growth

## CCCCc1csc(C(=O)NN)c1 [4-B-2-TAH, 4-butyl-2-Thiophenecarboxylic Acid Hydrazide]
[2]
  cytotoxic effects: pronounced cytotoxic effects
[3]; after 12 hours of treatment
  cell number: no further increase in cell number
[3]; within 48 h of treatment
  decrease in cell number: greater than 90%

## O=C(O)c1oc(Cl)c(Cl)c1Cl [3,4,5-TFA, 3,4,5-Trichloro-2-Furoic acid]
[4]; Chinese hamster, 3 mM
  cytotoxicity and cell death, share of CHO cells: greater than 99%
[1]; CHO cells
  time within which growth was strongly inhibited: ≤ 12 h
[1]
  inhibition at 1000 µM: > 80%
  inhibition at 3000 µM: > 99%

## C[C@H](CS)C(=O)N1CCC[C@H]1C(=O)O [Captopril]
[5]
  inhibition of LTA4 hydrolase, concentration range: low uM range

## NN.O=C(O)c1sc(Cl)c(Cl)c1Cl [3,4,5-TTAH]
[4]; 500 uM, 24-72 hours exposure
  cytotoxicity and cell death, share of CHO cells: greater than 95%
[4]; 500 uM, 72 h, trypan blue dye exclusion test
  detached cells destroyed by the agent: > 99.9%
[1]; 500 uM
  growth of CHO cells: strongly inhibited

## O=C(O)c1cccs1 [2-TH acid, 2-thiophenecarboxylic acid]
[6]
  LD-50: 30 grams/70 Kg

## O=C(O)c1ccco1 [2-Furoic acid]
[4]
  toxic effects on the cells: no significant toxic effects
[1]; CHO cells, 3 to 10 mM
  time within which growth was inhibited in a dose-dependent fashion: ≤ 24 h
[1]; 72 h
  inhibition at 3000 µM: ~20%
  inhibition at 10000 µM: ~40%

## CCCCc1csc(C(=O)NN)c1Cl
[7]
  times more active than 2-thiophenecarboxylic acid: 7-10 times
[8]
  times more active than 2-thiophenecarboxylic acid: 7-10 times

## O=C(O)c1ccccn1 [picolinic acid]
[9]
  effect on infected cells: cause apoptosis of HF infected cells

## NNC(=O)c1cccs1 [2-TCAH, 2-thiophenecarboxylic acid hydrazide]
[4]
  toxic effects on the cells: significant toxic effects
[1]; CHO cells
  time within which growth was inhibited in a dose-dependent fashion: ≤ 24 h
[1]; 72 h
  inhibition at 1000 µM: ~65%
  inhibition at 10000 µM: ~90%

## O=C(O)c1sc(Cl)c(Cl)c1Cl [3,4,5-TTA]
[1]; CHO cells
  time within which growth was strongly inhibited: ≤ 6 h
[1]
  inhibition at 1000 µM: > 98%
  inhibition at 3000 µM: 100%
